We go through twelve compounds from ChEMBL document CHEMBL1250441, “Antitumor agents 273. Design and synthesis of N-alkyl-thiocolchicinoids as potential antitumor agents” (Bioorg Med Chem Lett, 2010).

Data set [1] can be described thus: Inhibition of tubulin assembly.
In data set [2] the test system is HCT-8. Kind of data set: Cytotoxicity against human HCT8 cells after 2 days. The class given is functional. Conditions: HCT-8, 48 h, read-out: ED50 (the source's name).
The subject of data set [3] is A549. Kind of data set: Cytotoxicity against human A549 cells after 2 days. Conditions: A549, 48 h, read-out: ED50 (the source's name). The class given is functional.
The test system of data set [4] is DU-145. Kind of data set: Cytotoxicity against human DU145 cells after 2 days. Conditions: DU-145, 48 h, read-out: ED50 (the source's name). In kind it is functional.
Data set [5] has as its system SK-BR-3. Kind of data set: Cytotoxicity against human SKBR3 cells after 2 days. The class given is functional. Conditions: SK-BR-3, 48 h, read-out: ED50 (the source's name).
Data set [6] has as its system KB. The data set is described as follows: Cytotoxicity against human KB cells after 2 days. The class given is functional. Conditions: 48 h, read-out: ED50 (the source's name).
Data set [7] can be described thus: Cytotoxicity against human KBVIN cells expressing p-glycoprotein after 2 days. Conditions: 48 h, read-out: ED50 (the source's name). The class given is functional.
Data set [8] can be described thus: Solubility of the compound in water. In kind it is physicochemical. Conditions: buffer.
Data set [9] concerns A549. The data set is described as follows: Selectivity ratio of ED50 for human HCT8 cells to ED50 for human A549 cells. The class given is functional.
Data set [10] relates to DU-145. Kind of data set: Selectivity ratio of ED50 for human HCT8 cells to ED50 for human DU145 cells. The class given is functional.
Data set [11] concerns HCT-8. The data set is described as follows: Selectivity ratio of ED50 for human HCT8 cells to ED50 for human KB cells. In kind it is functional.
The nature of data set [12]: Selectivity ratio of ED50 for human HCT8 cells to ED50 for human KBVIN cells. In kind it is functional.
Data set [13] concerns A549. The data set is described as follows: Selectivity ratio of ED50 for human SKBR3 cells to ED50 for human A549 cells. The class given is functional.
In data set [14] the test system is SK-BR-3. Kind of data set: Selectivity ratio of ED50 for human SKBR3 cells to ED50 for human DU145 cells. In kind it is functional.
Data set [15] relates to SK-BR-3. Kind of data set: Selectivity ratio of ED50 for human SKBR3 cells to ED50 for human KB cells. The class given is functional.
Data set [16] deals with SK-BR-3. The data set is described as follows: Selectivity ratio of ED50 for human SKBR3 cells to ED50 for human KBVIN cells. In kind it is functional.

Molecules are shown by their SMILES. Values after ≈ are worked out from the molar mass of the structure shown.

In the case of `CCCN([C@H]1CCc2cc(OC)c(OC)c(OC)c2-c2ccc(SC)c(=O)cc21)S(=O)(=O)c1ccccc1[N+](=O)[O-]`, in data set [1], the IC50 (usually the concentration needed to halve the response being measured) is above 40 µM. The EC50 in data set [2] was above 1 mg/L; in [3] it was 1.63 mg/L (≈ 2.72 µM); in [4], 0.357 mg/L (≈ 0.595 µM); in data set [5], 0.616 mg/L (≈ 1.02 µM); in data set [6], 0.96 mg/L (≈ 1.6 µM); in data set [7], 1.36 mg/L (≈ 2.27 µM).

`COc1cc2c(c(OC)c1O)-c1ccc(SC)c(=O)cc1[C@@H](N(C)S(=O)(=O)c1ccccc1[N+](=O)[O-])CC2` displayed an IC50 in data set [1] of 3.6 µM. Also, the EC50 in [2] is above 1 mg/L; in data set [3], 1.68 mg/L (≈ 3.01 µM); in [4] it was 1.15 mg/L (≈ 2.06 µM); in [5], 1.01 mg/L (≈ 1.81 µM); in data set [6], 0.72 mg/L (≈ 1.29 µM); in data set [7], 1.49 mg/L (≈ 2.67 µM).

For the compound `CCN(CC)[C@H]1CCc2cc(OC)c(OC)c(OC)c2-c2ccc(SC)c(=O)cc21.O=C(O)CCC(=O)O`, in data set [8], the solubility (as a rule, the dissolved amount per volume that the medium holds) was 107 mg/mL. In [1], this compound displayed an IC50 of 16 µM. Also, the EC50 turned out to be 0.11 mg/L in [2]; 0.181 mg/L in data set [3]; 0.125 mg/L in [4]; 0.136 mg/L in [5]; 0.063 mg/L in data set [6]; 0.151 mg/L in [7].

`COc1cc2c(c(OC)c1OC)-c1ccc(OC)c(=O)cc1[C@@H](NC(C)=O)CC2` [COLCHICINE]: the EC50 in data set [2] stood at 0.054 mg/L (≈ 0.135 µM); in data set [3], 0.0199 mg/L (≈ 0.0498 µM); in data set [4], 0.0027 mg/L (≈ 0.00676 µM); in data set [5], 0.0027 mg/L (≈ 0.00676 µM); in [6], 0.0038 mg/L (≈ 0.00951 µM); in data set [7], 0.158 mg/L (≈ 0.395 µM).

In the case of `COc1cc2c(c(OC)c1OC)-c1ccc(SC)c(=O)cc1[C@@H](N(C)S(=O)(=O)c1ccccc1[N+](=O)[O-])CC2`, it took 0.92 µM to reach half-maximal inhibition in data set [1] (IC50). Further, the EC50 worked out at 0.12 mg/L (≈ 0.21 µM) in data set [2]; 0.129 mg/L (≈ 0.225 µM) in data set [3]; 0.0312 mg/L (≈ 0.0545 µM) in data set [4]; 0.0285 mg/L (≈ 0.0498 µM) in data set [5]; 0.035 mg/L (≈ 0.0611 µM) in data set [6]; 0.153 mg/L (≈ 0.266 µM) in data set [7].

In data set [1], `CCN[C@H]1CCc2cc(OC)c(OC)c(OC)c2-c2ccc(SC)c(=O)cc21` returned an IC50 of 5.4 µM. In addition, the EC50 stood at 0.031 mg/L (≈ 0.0772 µM) in data set [2]; 0.0193 mg/L (≈ 0.0481 µM) in data set [3]; 0.0138 mg/L (≈ 0.0344 µM) in data set [4]; 0.0141 mg/L (≈ 0.0351 µM) in [5]; 0.02 mg/L (≈ 0.0498 µM) in data set [6]; 0.0146 mg/L (≈ 0.0364 µM) in data set [7].

Take `COc1cc2c(c(OC)c1OC)-c1ccc(SC)c(=O)cc1[C@@H](N(C)C)CC2.O=C(O)CCC(=O)O`: in [8], the solubility was found to be 103 mg/mL. In [1], this compound showed an IC50 of 3.6 µM. For the same compound, the EC50 turned out to be 0.022 mg/L in data set [2]; 0.19 mg/L in data set [3]; 0.124 mg/L in data set [4]; 0.0129 mg/L in data set [5]; 0.12 mg/L in data set [6]; 0.125 mg/L in [7]. For the same compound, the “Ratio ED50” value in data set [9], in [10], in [11], in [12], in data set [13] and in data set [14] was 10 throughout. The “Ratio ED50” value in data set [15] and in data set [16] was 10 each time.

For `CN[C@H]1CCc2cc(OC)c(O)c(OC)c2-c2ccc(SC)c(=O)cc21`, the IC50 in [1] was above 40 µM. Further, the EC50 is 1.55 mg/L (≈ 4.14 µM) in data set [3]; 0.505 mg/L (≈ 1.35 µM) in data set [4]; 0.487 mg/L (≈ 1.31 µM) in data set [5]; 0.55 mg/L (≈ 1.47 µM) in [6]; 1.38 mg/L (≈ 3.7 µM) in [7].

As for `CN[C@H]1CCc2cc(OC)c(OP(=O)(O)O)c(OC)c2-c2ccc(SC)c(=O)cc21`, the solubility in data set [8] was determined as 15 mg/mL (≈ 33100 µM). Moreover, in data set [1], the IC50 was above 40 µM. Moreover, the EC50 in data set [2] was above 1 mg/L; in data set [3] it was 0.533 mg/L (≈ 1.18 µM); in data set [4], 0.157 mg/L (≈ 0.347 µM); in [5], 0.137 mg/L (≈ 0.302 µM); in data set [6] it was 0.25 mg/L (≈ 0.551 µM); in [7] it was 1.71 mg/L (≈ 3.76 µM).

In [1], `CCN([C@H]1CCc2cc(OC)c(OC)c(OC)c2-c2ccc(SC)c(=O)cc21)S(=O)(=O)c1ccccc1[N+](=O)[O-]` gave a half-inhibitory concentration (IC50) of 4.2 µM. For the same compound, the EC50 in data set [2] was 0.52 mg/L (≈ 0.886 µM); in data set [3], 0.212 mg/L (≈ 0.361 µM); in [4], 0.163 mg/L (≈ 0.278 µM); in data set [5] it was 0.148 mg/L (≈ 0.253 µM); in data set [6] it was 0.13 mg/L (≈ 0.222 µM); in data set [7], 0.174 mg/L (≈ 0.296 µM).

With `CN[C@H]1CCc2cc(OC)c(O)c(OC)c2-c2ccc(SC)c(=O)cc21.O=C(O)CCC(=O)O`, the solubility in [8] was determined as 95 mg/mL. The compound also had an IC50 in data set [1] of 23 µM. The EC50 in [2] was above 1 mg/L; in data set [3], 1.26 mg/L; in [4], 0.342 mg/L; in data set [5], 0.39 mg/L; in data set [6] it was 0.35 mg/L; in data set [7] it was 1.35 mg/L.

In data set [1], `COc1cc2c(c(OC)c1OC)-c1ccc(SC)c(=O)cc1[C@@H](NS(=O)(=O)c1ccccc1[N+](=O)[O-])CC2` had an IC50 of 1.1 µM. Besides, the EC50 in data set [2] stood at 0.027 mg/L (≈ 0.0483 µM); in data set [3], 0.0209 mg/L (≈ 0.0374 µM); in [4] it was 0.0129 mg/L (≈ 0.0231 µM); in [5], 0.0126 mg/L (≈ 0.0226 µM); in [6], 0.01 mg/L (≈ 0.0179 µM); in [7] it was 0.112 mg/L (≈ 0.2 µM).
